In ChEMBL document CHEMBL5108031, “Novel N-(4-thiocyanatophenyl)-1H-1,2,3-triazole-4-carboxamides exhibit selective cytotoxic activity at nanomolar doses towards human leukemic T-cells” (Eur J Med Chem, 2022):
The source made the active and inactive calls. The calls are words filed in the database; no cut-off is given here.

Tests used:
[1] = system: A498; assay: Antiproliferative activity against human A498 cells assessed as relative cell growth at 10 uM incubated for 48 hrs and measured by SRB assay; type: functional; settings: read-out: Activity
[2] = system: HL-60(TB); assay: Antiproliferative activity against human HL-60(TB) cells assessed as relative cell growth at 10 uM incubated for 48 hrs and measured by SRB assay; type: functional; settings: read-out: Activity
[3] = system: COLO 205; assay: Antiproliferative activity against human COLO 205 cells assessed as relative cell growth at 10 uM incubated for 48 hrs and measured by SRB assay; type: functional; settings: read-out: Activity
[4] = system: K562; assay: Antiproliferative activity against human K562 cells assessed as relative cell growth at 10 uM incubated for 48 hrs and measured by SRB assay; type: functional; settings: read-out: Activity
[5] = system: Jurkat; assay: Induction of apoptosis in human Jurkat cells assessed as cell debris at 0.5 uM measured after 24 hrs by Hoechst 33342/propidium iodide staining based fluorescence microscopic analysis; type: functional
[6] = system: SF-539; assay: Antiproliferative activity against human SF-539 cells assessed as relative cell growth at 10 uM incubated for 48 hrs and measured by SRB assay; type: functional; settings: read-out: Activity
[7] = system: Jurkat; assay: Induction of apoptosis in human Jurkat cells assessed as appearance of apoptotic bodies at 0.5 uM measured after 24 hrs by Hoechst 33342/propidium iodide staining based fluorescence microscopic analysis; type: functional, cell-based
[8] = system: Jurkat; assay: Induction of DNA damage in human Jurkat cells assessed as tail DNA at 0.5 uM measured after 24 hrs by comet assay; type: functional
[9] = system: BALB/3T3; assay: Antiproliferative activity against mouse BALB/3T3 cells incubated for 72 hrs and measured by MTT assay; type: functional
[10] = system: Jurkat; assay: Induction of apoptosis in human Jurkat cells assessed as decrease in mitochondrial membrane potential at 0.5 uM measured after 24 hrs by Rhodamine 123 fluorescence based assay; type: functional, cell-based
[11] = system: HOP-92; assay: Antiproliferative activity against human HOP-92 cells incubated for 48 hrs and measured by SRB assay; type: functional
[12] = system: WM793; assay: Antiproliferative activity against human WM793 cells incubated for 72 hrs and measured by MTT assay; type: functional
[13] = system: CCRF-CEM; assay: Antiproliferative activity against human CCRF-CEM cells assessed as relative cell growth at 10 uM incubated for 48 hrs and measured by SRB assay; type: functional; settings: read-out: Activity
[14] = system: SR; assay: Antiproliferative activity against human SR cells assessed as relative cell growth at 10 uM incubated for 48 hrs and measured by SRB assay; type: functional; settings: read-out: Activity
[15] = system: LOX IMVI; assay: Antiproliferative activity against human LOX IMVI cells assessed as relative cell growth at 10 uM incubated for 48 hrs and measured by SRB assay; type: functional; settings: read-out: Activity
[16] = system: NCI-H460; assay: Antiproliferative activity against human NCI-H460 cells incubated for 48 hrs and measured by SRB assay; type: functional, cell-based; settings: NCI-H460, 48 h
[17] = system: RXF 393; assay: Antiproliferative activity against human RXF 393 cells incubated for 48 hrs and measured by SRB assay; type: functional
[18] = system: HeLa; assay: Antiproliferative activity against human HeLa cells incubated for 72 hrs and measured by MTT assay; type: functional
[19] = system: TK-10; assay: Antiproliferative activity against human TK-10 cells incubated for 48 hrs and measured by SRB assay; type: functional
[20] = system: MDA-MB-468; assay: Antiproliferative activity against human MDA-MB-468 cells assessed as relative cell growth at 10 uM incubated for 48 hrs and measured by SRB assay; type: functional; settings: read-out: Activity
[21] = system: HCC 2998; assay: Antiproliferative activity against human HCC 2998 cells assessed as relative cell growth at 10 uM incubated for 48 hrs and measured by SRB assay; type: functional; settings: read-out: Activity
[22] = system: SR; assay: Antiproliferative activity against human SR cells incubated for 48 hrs and measured by SRB assay; type: functional
[23] = target: Heat shock protein HSP 90-alpha (Homo sapiens, UniProt P07900); assay: Inhibition of Hsp90alpha (unknown origin)
[24] = system: Jurkat; assay: Induction of apoptosis in human Jurkat cells assessed as fragmented DNA and nuclei at 0.5 uM measured after 24 hrs by Hoechst 33342/propidium iodide staining based fluorescence microscopic analysis; type: functional, cell-based
[25] = system: HL-60(TB); assay: Antiproliferative activity against human HL-60(TB) cells incubated for 48 hrs and measured by SRB assay; type: functional
[26] = system: KB 3-1; assay: Antiproliferative activity against human KB 3-1 cells incubated for 72 hrs and measured by MTT assay; type: functional
[27] = system: Jurkat; assay: Induction of DNA damage in human Jurkat cells assessed as olive tail moment at 0.5 uM measured after 24 hrs by comet assay; type: functional
[28] = system: UO-31; assay: Antiproliferative activity against human UO-31 cells assessed as relative cell growth at 10 uM incubated for 48 hrs and measured by SRB assay; type: functional; settings: read-out: Activity
[29] = system: UO-31; assay: Antiproliferative activity against human UO-31 cells incubated for 48 hrs and measured by SRB assay; type: functional
[30] = system: HEK293; assay: Antiproliferative activity against human HEK293 cells incubated for 72 hrs and measured by MTT assay; type: functional
[31] = system: DNA; assay: Binding affinity to DNA (unknown origin) assessed as DNA intercalation at 1 to 100 uM by measuring amount of methyl green dye replaced from DNA-methyl green complex; type: nucleic-acid assay; settings: Homo sapiens; dose 1-100 µM
[32] = system: MCF7; assay: Antiproliferative activity against human MCF7 cells incubated for 72 hrs and measured by MTT assay; type: functional
[33] = system: Jurkat; assay: Antiproliferative activity against human Jurkat cells incubated for 72 hrs and measured by MTT assay; type: functional
[34] = system: Malme-3M; assay: Antiproliferative activity against human Malme-3M cells assessed as relative cell growth at 10 uM incubated for 48 hrs and measured by SRB assay; type: functional; settings: read-out: Activity
[35] = system: HaCaT; assay: Antiproliferative activity against human HaCaT cells incubated for 72 hrs and measured by MTT assay; type: functional
[36] = system: SF-295; assay: Antiproliferative activity against human SF-295 cells incubated for 48 hrs and measured by SRB assay; type: functional
[37] = system: NCI-H522; assay: Antiproliferative activity against human NCI-H522 cells incubated for 48 hrs and measured by SRB assay; type: functional
[38] = system: HCT-116; assay: Antiproliferative activity against human HCT-116 cells incubated for 72 hrs and measured by MTT assay; type: functional
[39] = system: THP-1; assay: Antiproliferative activity against human THP-1 cells incubated for 72 hrs and measured by MTT assay; type: functional
[40] = system: NCI-H460; assay: Antiproliferative activity against human NCI-H460 cells assessed as relative cell growth at 10 uM incubated for 48 hrs and measured by SRB assay; type: functional; settings: read-out: Activity
[41] = system: SK-OV-3; assay: Antiproliferative activity against human SK-OV-3 cells incubated for 72 hrs and measured by MTT assay; type: functional
[42] = system: MDA-MB-231; assay: Antiproliferative activity against human MDA-MB-231 cells incubated for 72 hrs and measured by MTT assay; type: functional
[43] = system: HCT-116; assay: Antiproliferative activity against p53-deficient human HCT-116 cells incubated for 72 hrs and measured by MTT assay; type: functional
[44] = system: Jurkat; assay: Induction of apoptosis in human Jurkat cells assessed as condensed chromatin at 0.5 uM measured after 24 hrs by Hoechst 33342/propidium iodide staining based fluorescence microscopic analysis; type: functional, cell-based
[45] = system: K562; assay: Antiproliferative activity against human K562 cells incubated for 72 hrs and measured by MTT assay; type: functional
[46] = system: MOLT-4; assay: Antiproliferative activity against human MOLT-4 cells assessed as relative cell growth at 10 uM incubated for 48 hrs and measured by SRB assay; type: functional; settings: read-out: Activity
[47] = system: Jurkat; assay: Induction of DNA damage in human Jurkat cells assessed as DNA fragmentation at 0.5 uM measured by Diphenylamine assay; type: functional
[48] = system: CAKI-1; assay: Antiproliferative activity against human CAKI-1 cells assessed as relative cell growth at 10 uM incubated for 48 hrs and measured by SRB assay; type: functional; settings: read-out: Activity
[49] = system: LOX IMVI; assay: Antiproliferative activity against human LOX IMVI cells incubated for 48 hrs and measured by SRB assay; type: functional
[50] = system: A549; assay: Antiproliferative activity against human A549 cells incubated for 72 hrs and measured by MTT assay; type: functional
[51] = system: SF-295; assay: Antiproliferative activity against human SF-295 cells assessed as relative cell growth at 10 uM incubated for 48 hrs and measured by SRB assay; type: functional; settings: read-out: Activity
[52] = system: Jurkat; assay: Induction of apoptosis in human Jurkat cells assessed as cellular membrane blebbing at 0.5 uM measured after 24 hrs by Hoechst 33342/propidium iodide staining based fluorescence microscopic analysis; type: functional, cell-based
[53] = read-out: LC50 (the source's name)

## Cc1c(C(=O)Nc2ccc(SC#N)cc2)nnn1-c1ccc(C(C)C)cc1
[1]
  growth at 10 µM: 93.6%
[2]
  growth at 10 µM: 8.6%
[3]
  growth at 10 µM: 89.4%
[4]
  growth at 10 µM: 10.3%
[5]
  Activity: Active
[6]
  growth at 10 µM: 2.96%
[7]
  Activity: Active
[8]
  Activity: 8.5%
[9]
  GI50: > 100 µM
[10]
  Activity: Active
[11]
  GI50: 2.85 µM
  TGI: 10.2 µM
[11]; [53]
  CC50: 62 µM
[12]
  GI50: > 100 µM
[13]
  growth at 10 µM: -13.3%
[14]
  growth at 10 µM: -19.9%
[15]
  growth at 10 µM: -53.1%
[16]
  IC50: 0.028 µM
[17]
  GI50: 4.27 µM
  TGI: 20.4 µM
[17]; [53]
  CC50: 69.5 µM
[18]
  GI50: > 100 µM
[19]
  GI50: 3.21 µM
  TGI: 9.94 µM
[19]; [53]
  CC50: > 100 µM
[20]
  growth at 10 µM: 80.1%
[21]
  growth at 10 µM: 82.6%
[22]
  GI50: 1.77 µM
  TGI: 5.51 µM
[22]; [53]
  CC50: > 100 µM
[23]
  IC50: 0.023 µM
[24]
  Activity: Active
[25]
  GI50: 2.8 µM
  TGI: 11.5 µM
[25]; [53]
  CC50: > 100 µM
[26]
  GI50: 7.4 µM
[27]
  Activity: 1.3
[28]
  growth at 10 µM: -17.1%
[29]
  GI50: 2.88 µM
  TGI: 15.5 µM
[29]; [53]
  CC50: > 100 µM
[30]
  GI50: > 100 µM
[31]
  Activity: 2.4%
[32]
  GI50: > 100 µM
[33]
  GI50: 0.69 µM
[34]
  growth at 10 µM: 95.1%
[35]
  GI50: > 100 µM
[36]
  GI50: 2.71 µM
  TGI: 9.79 µM
[36]; [53]
  CC50: > 100 µM
[37]
  GI50: 1.97 µM
  TGI: 5.81 µM
[37]; [53]
  CC50: > 100 µM
[38]
  GI50: > 100 µM
[39]
  GI50: > 100 µM
[40]
  growth at 10 µM: 13.7%
[41]
  GI50: 10 µM
[42]
  GI50: > 100 µM
[43]
  GI50: 8.4 µM
[44]
  Activity: Active
[45]
  GI50: 5.4 µM
[46]
  growth at 10 µM: -17.6%
[47]
  Activity: 26.7%
[48]
  growth at 10 µM: -53.2%
[49]
  GI50: 0.15 µM
  TGI: 1.12 µM
[49]; [53]
  CC50: 4.48 µM
[50]
  GI50: > 100 µM
[51]
  growth at 10 µM: 4.89%
[52]
  Activity: Active
